Assay results from patent US20250042886A1, “BIS(HETERO)ARYL THIOETHER OXADIAZINES AS FUNGICIDAL COMPOUNDS” (Bayer Aktiengesellschaft, priority 2021, published 2025).

Tests used:
[1] = Measurement of Log P values by HPLC on reversed phase columns (EEC directive 79/831 Annex V.A8); assay type: physicochemical; settings: Table 1, compounds of formula (I); method [a]: LC-UV, acidic range, 0.1% formic acid in water and acetonitrile
Botrytis cinerea = experiment: In vivo preventive test on Botrytis cinerea (grey mould); settings: 500 ppm of active ingredient, sprayed on young gherkin or cabbage plants 24 h before inoculation, evaluated 4 to 5 days after inoculation, read-out: efficacy
How it was run: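 Compounds in DMSO/acetone/Tween 80 were diluted in water and sprayed onto young gherkin or cabbage plants; controls got solvent only. After 24 h, leaves were sprayed with an aqueous Botrytis cinerea spore suspension.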

[2] = tested on: Colletotrichum lindemuthianum; experiment: In vivo preventive test on Colletotrichum lindemuthianum (leaf spot on bean); settings: 168 h, 500 ppm of active ingredient, sprayed on young bean plants 24 h before inoculation, evaluated 7 days after inoculation, read-out: efficacy
How it was run: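 Young bean plants sprayed preventively with compound in DMSO/acetone/Tween 80 diluted in water; controls got solvent mix only. After 24 hours, leaves sprayed with an aqueous spore suspension of C. lindemuthianum.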

Alternaria alternata = Alternaria alternata in vitro cell test; assay type: cell-based; settings: 120 h, liquid culture, 5 days incubation, read-out: efficacy (inhibition of fungal growth); for inhibition at 20 ppm: 20 ppm of active ingredient
How it was run: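 Spores in glucose/mycological peptone/yeast extract liquid medium were exposed to DMSO-dissolved fungicides for 5 days. Inhibition of germination and mycelial growth was read spectrophotometrically, comparing absorbance against fungicide-free control wells.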

[3] = tested on: Colletotrichum lindemuthianum; experiment: Colletotrichum lindemuthianum in vitro cell test; assay type: cell-based; settings: 144 h, liquid culture, 6 days incubation, read-out: efficacy (inhibition of fungal growth); for inhibition at 20 ppm: 20 ppm of active ingredient
How it was run: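 C. lindemuthianum spores in liquid glucose–peptone–yeast extract medium were exposed to compounds dissolved in DMSO. After 6 days, mycelial growth was measured by absorbance, and inhibition was calculated against compound-free control wells.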

Pyrenophora teres = Pyrenophora teres in vitro cell test; assay type: cell-based; settings: 144 h, liquid culture, 6 days incubation, read-out: efficacy (inhibition of fungal growth); for inhibition at 20 ppm: 20 ppm of active ingredient
How it was run: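 Compounds in DMSO were added to P. teres spore suspensions in glucose/peptone/yeast-extract liquid medium, testing inhibition of spore germination and mycelium growth. After 6 days, mycelium growth was read by absorbance. Inhibition was calculated relative to fungicide-free control wells.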

Septoria tritici = Septoria tritici in vitro cell test; assay type: cell-based; settings: Zymoseptoria tritici, 168 h, liquid culture, 7 days incubation, read-out: efficacy (inhibition of fungal growth); for inhibition at 20 ppm: 20 ppm of active ingredient
Method: B-11. Septoria tritici In Vitro Cell Test • Solvent: DMSO • Culture medium: 1 g KH2PO4 (VWR), 1 g K2HPO4 (VWR), 0.5 g Urea (VWR), 3 g KNO3 (Prolabo), 10 g saccharose (VWR), 0.5 g MgSO4, 7H2O (Sigma), 0.07 g CaCl2, 2H2O (Prolabo), 0.2 mg MnSO4, H2O (Sigma), 0.6 mg CuSO4, 5H2O (Sigma), 7.9 mg ZnSO4, 7H2O (Sigma), 0.1 mg H3BO3 (Merck), 0.14 mg NaMoO4, 2H2O (Sigma), 2 mg thiamine (Sigma), 0.1 mg biotine (VWR), 4 mg FeSO4, 7H2O (Sigma), QSP 1 liter • Inoculum: spore suspension Fungicides were solubilized in DMSO and the solution used to prepare the required range of concentrations. […] A spore suspension of S. tritici was prepared and diluted to the desired spore density. Fungicides were evaluated for their ability to inhibit spore germination and mycelium growth in liquid culture assay. The compounds were added in the desired concentration to the culture medium with spores. […] Inhibition of fungal growth was determined by comparing the absorbance values in wells containing the fungicides with the absorbance in control wells without fungicides.

Pyricularia oryzae = experiment: microbe, parasite or virus in culture; assay type: cell-based; settings: 120 h; for inhibition at 20 ppm: read-out: efficacy (inhibition of fungal growth), 20 ppm of active ingredient, liquid culture, 5 days incubation

Row | Compound | chromatographic logP [1] | pest or weed control at 500 ppm (Botrytis cinerea) [%] | pest or weed control at 500 ppm [2] [%] | inhibition at 20 ppm (Alternaria alternata) [%] | inhibition at 20 ppm [3] [%] | inhibition at 20 ppm (Pyrenophora teres) [%] | inhibition at 20 ppm (Septoria tritici) [%] | inhibition at 20 ppm (Pyricularia oryzae) [%] | inhibition at 50 µM (Alternaria alternata; 50 μMol/l of active ingredient) [%] | inhibition at 50 µM (Pyricularia oryzae; read-out: efficacy (inhibition of fungal growth), 50 μMol/l of active ingredient, liquid culture, 5 days incubation) [%] | inhibition at 50 µM ([3]; 50 μMol/l of active ingredient) [%] | inhibition at 50 µM (Pyrenophora teres; 50 μMol/l of active ingredient) [%] | inhibition at 50 µM (Septoria tritici; 50 μMol/l of active ingredient) [%]
1 | Cc1ccc(C[C@@H]2CON=C(c3nc(C)ncc3Sc3cccc(Cl)c3)N2)c(C)c1 (racemic) [Compound I-031] | 5.16 | 90 to 100 | 90 to 100 | 70 to 79 | 90 to 100 | 90 to 100 | 80 to 89 |  |  |  |  |  | 
2 | Cc1cccc(Sc2cnc3ccccc3c2C2=NOC[C@H](Cc3ccc(C)cc3C)N2)c1 (racemic) [Compound I-023] | 4.37 | 90 to 100 | 70 to 79 | 90 to 100 | 90 to 100 | 90 to 100 | 90 to 100 | 90 to 100 |  |  |  |  | 
3 | Cc1cccc(Sc2cnc(C)nc2C2=NOC[C@@H](Cc3ccc(C)cc3C)N2)c1 (racemic) [Compound I-032] | 5.09 | 90 to 100 | 90 to 100 | 70 to 79 | 90 to 100 | 90 to 100 | 90 to 100 | 70 to 79 |  |  |  |  | 
4 | Cc1ccc(C[C@@H]2CON=C(c3c(Sc4cccc(C(F)(F)F)c4)nnc4ccccc34)N2)c(C)c1 (racemic) [Compound I-029] | 4.66 | 90 to 100 | 70 to 79 | 90 to 100 | 90 to 100 | 90 to 100 | 90 to 100 | 90 to 100 |  |  |  |  | 
5 | FC(F)(F)c1cccc(Sc2cnc(Cl)cc2C2=NOC[C@@H](Cc3ccc(Cl)cc3Cl)N2)c1 (racemic) [Compound I-022] | 4.97 | 90 to 100 | 90 to 100 |  | 90 to 100 | 90 to 100 | 80 to 89 | 80 to 89 |  |  |  |  | 
6 | Cc1cc([C@@H]2CON=C(c3c(Sc4cccc(Cl)c4)nnc(C)c3C)N2)c(C)s1 (racemic) [Compound I-100] | 3.49 | 90 to 100 | 90 to 100 |  |  |  |  |  | 90 to 100 | 90 to 100 | 90 to 100 | 90 to 100 | 90 to 100
7 | Cc1ccc(C[C@@H]2CON=C(c3nc(C)ncc3Sc3cccc(Cl)c3)N2)c(Cl)c1 (racemic) [Compound I-033] | 5.24 | 90 to 100 | 90 to 100 |  | 90 to 100 | 90 to 100 | 90 to 100 |  |  |  |  |  | 
8 | Cc1ccc(C[C@H]2CON=C(c3c(Sc4cccc(C(F)(F)F)c4)cnc4ccccc34)N2)c(C)c1 (racemic) [Compound I-030] | 4.57 | 90 to 100 | 90 to 100 | 90 to 100 | 90 to 100 | 90 to 100 | 70 to 79 | 90 to 100 |  |  |  |  | 
